Reference: the supplement of paper PMC5908809

How the values were obtained:
[1] = tested on: normal NK cells expanded with K562-aAPC; assay: percent inhibition of viability; higher = more inhibition; conditions: 72 h, IL-2 2.5 ng/mL
Experimental: (§1)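 Drug sensitivity and resistance testing on K562-aAPC-expanded normal NK cells: 5 concentrations (10-fold steps over a 10,000-fold range), 72 h at 37 °C, viability by CellTiter-Glo normalised to DMSO and benzethonium chloride controls; DSS from the fitted curve.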

DERL-7 (IL-2 2.5 ng/mL) [2] = assay: as above; conditions: 72 h
IMC-1 (IL-2 20 ng/mL) [3] = assay: as above; conditions: 72 h
KAI3 (IL-2 2.5 ng/mL) [4] = assay: as above; conditions: 72 h
KHYG-1 (IL-2 2.5 ng/mL) [5] = assay: as above; conditions: 72 h
NK-92 (IL-2 2.5 ng/mL) [6] = assay: as above; conditions: 72 h
NK-YS (IL-2 2.5 ng/mL) [7] = assay: as above; conditions: 72 h
NKL (IL-2 2.5 ng/mL) [8] = assay: as above; conditions: 72 h
SNK-6 (IL-2 2.5 ng/mL) [9] = assay: as above; conditions: 72 h
YT (IL-2 2.5 ng/mL) [10] = assay: as above; conditions: 72 h
[11] = tested on: normal primary NK cells, pool 1 (3 donors) (IL-2 2.5 ng/mL); assay: as above; conditions: 72 h
[12] = tested on: normal primary NK cells, pool 1 (3 donors), resting (IL-2 0 ng/mL); assay: as above; conditions: 72 h
[13] = tested on: normal primary NK cells, pool 2 (3 donors) (IL-2 2.5 ng/mL); assay: as above; conditions: 72 h
[14] = tested on: normal primary NK cells, pool 3 (3 donors) (IL-2 2.5 ng/mL); assay: as above; conditions: 72 h
[15] = tested on: normal NK cells expanded with K562-aAPC; assay: drug sensitivity score (DSS) (DSS units); higher = more sensitive; extreme values may be limits of the assay; conditions: 72 h; IL-2 2.5 ng/mL
Experimental: as §1

DERL-7 (IL-2 2.5 ng/mL) [16] = assay: as above; conditions: 72 h
IMC-1 (IL-2 20 ng/mL) [17] = assay: as above; conditions: 72 h
KAI3 (IL-2 2.5 ng/mL) [18] = assay: as above; conditions: 72 h
KHYG-1 (IL-2 2.5 ng/mL) [19] = assay: as above; conditions: 72 h
NK-92 (IL-2 2.5 ng/mL) [20] = assay: as above; conditions: 72 h
NK-YS (IL-2 2.5 ng/mL) [21] = assay: as above; conditions: 72 h
NKL (IL-2 2.5 ng/mL) [22] = assay: as above; conditions: 72 h
SNK-6 (IL-2 2.5 ng/mL) [23] = assay: as above; conditions: 72 h
YT (IL-2 2.5 ng/mL) [24] = assay: as above; conditions: 72 h
[25] = tested on: normal primary NK cells, pool 1 (3 donors) (IL-2 2.5 ng/mL); assay: as above; conditions: 72 h
[26] = tested on: normal primary NK cells, pool 1 (3 donors), resting (IL-2 0 ng/mL); assay: as above; conditions: 72 h
[27] = tested on: normal primary NK cells, pool 2 (3 donors) (IL-2 2.5 ng/mL); assay: as above; conditions: 72 h
[28] = tested on: normal primary NK cells, pool 3 (3 donors) (IL-2 2.5 ng/mL); assay: as above; conditions: 72 h

CNC(=O)c1cc(Oc2ccc(NC(=O)Nc3cc(C(C)(C)C)nn3-c3ccc4ncccc4c3)c(F)c2)ccn1 [Rebastinib] (max concentration tested 1000 nM)
percent inhibition of viability [%]
Conditions	0.1 nM	1 nM	10 nM	100 nM	1000 nM
DERL-7 (IL-2 2.5 ng/mL) [2]	-4.96	1.69	-0.5	-4.52	-8.09
IMC-1 (IL-2 20 ng/mL) [3]	0.93	7.15	-1.23	1.86	-6.19
KAI3 (IL-2 2.5 ng/mL) [4]	7.99	9.63	10.5	5.1	-6.78
KHYG-1 (IL-2 2.5 ng/mL) [5]	-2.88	-0.08	0.01	-1.2	-8.03
NK-92 (IL-2 2.5 ng/mL) [6]	-1.88	1.51	-1.48	0.06	-12.8
NK-YS (IL-2 2.5 ng/mL) [7]	-1.58	-3.98	-0.95	1.01	2.92
NKL (IL-2 2.5 ng/mL) [8]	-2.2	-3.91	-1.3	8.69	5.2
SNK-6 (IL-2 2.5 ng/mL) [9]	7.77	13.4	-14.2	1.04	-59.9
YT (IL-2 2.5 ng/mL) [10]	-4.61	-3.15	-0.26	1.61	-0.37
[1]	-1.77	-3.86	-0.78	-3.03	-4.18
[11]	-3.76	-8.51	-9.53	-4.2	-12.7
[12]	-11.2	-7.34	-6.2	-15.4	1.95
[13]	-4.03	-4.97	-4.4	-1.73	-9.3
[14]	-9.69	-6.19	-1.5	-11	-8.81

Conditions	drug sensitivity score
DERL-7 (IL-2 2.5 ng/mL) [16]	0
IMC-1 (IL-2 20 ng/mL) [17]	0
KAI3 (IL-2 2.5 ng/mL) [18]	0
KHYG-1 (IL-2 2.5 ng/mL) [19]	0
NK-92 (IL-2 2.5 ng/mL) [20]	0
NK-YS (IL-2 2.5 ng/mL) [21]	0
NKL (IL-2 2.5 ng/mL) [22]	0
SNK-6 (IL-2 2.5 ng/mL) [23]	0
YT (IL-2 2.5 ng/mL) [24]	0
[15]	0
[25]	0
[26]	0
[27]	0
[28]	0

COc1cc(F)c(F)c(Nc2ccc(I)cc2F)c1NS(=O)(=O)C1(C[C@H](O)CO)CC1 [Refametinib] (max concentration tested 10000 nM)
percent inhibition of viability [%]
Conditions	1 nM	10 nM	100 nM	1000 nM	10000 nM
DERL-7 (IL-2 2.5 ng/mL) [2]	6.17	13	30.2	53.8	78
IMC-1 (IL-2 20 ng/mL) [3]	-4.32	-6.37	-1.56	6.1	35.3
KAI3 (IL-2 2.5 ng/mL) [4]	-4.59	6.78	18.3	26.5	39.6
KHYG-1 (IL-2 2.5 ng/mL) [5]	-5.12	4.63	33.5	62.9	76.7
NK-92 (IL-2 2.5 ng/mL) [6]	-0.27	-1.5	-9.05	19.5	37.8
NK-YS (IL-2 2.5 ng/mL) [7]	-4.96	-5.01	5	14.1	31.5
NKL (IL-2 2.5 ng/mL) [8]	-2.52	16.4	39.5	74.4	82.3
SNK-6 (IL-2 2.5 ng/mL) [9]	2.1	-35.6	-25	-46.3	-9.38
YT (IL-2 2.5 ng/mL) [10]	1.91	1.53	7.51	17.5	44.4
[1]	-5.33	-11.3	-6.84	4.3	23.1
[11]	-10.8	15.4	14	11.4	29.1
[12]	0.56	9.23	10.7	12.4	49.4
[13]	0	6.56	8.63	16.2	40.9
[14]	-4.86	5.75	-0.36	3.44	28.4

Conditions	drug sensitivity score
DERL-7 (IL-2 2.5 ng/mL) [16]	14.7
IMC-1 (IL-2 20 ng/mL) [17]	2.67
KAI3 (IL-2 2.5 ng/mL) [18]	6.75
KHYG-1 (IL-2 2.5 ng/mL) [19]	16
NK-92 (IL-2 2.5 ng/mL) [20]	4.28
NK-YS (IL-2 2.5 ng/mL) [21]	2.69
NKL (IL-2 2.5 ng/mL) [22]	19.1
SNK-6 (IL-2 2.5 ng/mL) [23]	0
YT (IL-2 2.5 ng/mL) [24]	4.03
[15]	1.44
[25]	3.32
[26]	4.14
[27]	3.81
[28]	1.74

O=C(Nc1cccc(Cl)c1)Nc1ncc(CCNc2ncnc3ccsc23)s1 [SNS-314] (max concentration tested 1000 nM)
percent inhibition of viability [%]
Conditions	0.1 nM	1 nM	10 nM	100 nM	1000 nM
DERL-7 (IL-2 2.5 ng/mL) [2]	-2.96	-1.43	3.21	69.3	58.4
IMC-1 (IL-2 20 ng/mL) [3]	-9.62	-5.56	14.2	10.2	70.4
KAI3 (IL-2 2.5 ng/mL) [4]	-2.71	-1.61	20.4	30.6	47.3
KHYG-1 (IL-2 2.5 ng/mL) [5]	-7.32	-4.71	35.4	53.6	68
NK-92 (IL-2 2.5 ng/mL) [6]	-4.05	-1.72	20.3	45.2	83.4
NK-YS (IL-2 2.5 ng/mL) [7]	-8.15	-3.63	-0.24	70.4	75.2
NKL (IL-2 2.5 ng/mL) [8]	-9.51	-8.35	6.03	23.5	42.8
SNK-6 (IL-2 2.5 ng/mL) [9]	-12.7	-23.7	33.2	59.5	70
YT (IL-2 2.5 ng/mL) [10]	-4.76	-1.46	7.82	19	37.3
[1]	-6.43	-10	4.3	43.3	42.2
[11]	1.31	16.9	9.79	4.5	10.9
[12]	3.09	19.6	8.47	17.5	20.9
[13]	-8.39	1.8	4.68	5.41	5.48
[14]	-5.85	0.22	7.29	3.37	8.78

Conditions	drug sensitivity score
DERL-7 (IL-2 2.5 ng/mL) [16]	13.1
IMC-1 (IL-2 20 ng/mL) [17]	5.61
KAI3 (IL-2 2.5 ng/mL) [18]	7.77
KHYG-1 (IL-2 2.5 ng/mL) [19]	15
NK-92 (IL-2 2.5 ng/mL) [20]	11.2
NK-YS (IL-2 2.5 ng/mL) [21]	13
NKL (IL-2 2.5 ng/mL) [22]	4.85
SNK-6 (IL-2 2.5 ng/mL) [23]	17.1
YT (IL-2 2.5 ng/mL) [24]	3.89
[15]	8.52
[25]	0
[26]	3.41
[27]	0
[28]	0
